Reference: patent publication US5679640A, “Immunosuppressant peptides” (priority 1995, dated 1997)
Non-standard residues stand in square brackets, D forms with d. Residues, ends and D or L forms follow the SMILES beside them. *: point of attachment. Acetyl(1-adamantyl) = O=C(CC12CC3CC(CC(C3)C1)C2)*

Assays:
HLA-DR1 = molecular target: T1, HLA-DR1 (Homo sapiens, UniProt P01903+P01911, A100R/D57E/F55L/F60I/F76Y/I96L/L162R/M171V/P40L/Q125E/R42F/V115G/Y59C); assay: DR-peptide binding assay, DR1; conditions: for MHC Binding Assay DR1: Table 3, binding affinity relative to HA 307-319 = 1
T1 construct: EBV-transformed homozygous cell lines were used as a source of DR molecules; endogenous in cells; host or cells: LG-2 (EBV-transformed human B cell line, DR1 homozygous); lysate purified on a monoclonal antibody LB3.1 column

DR4w4 = molecular target: T2, DR4w4 (Homo sapiens, UniProt P01903+P01911, A100K/A169T/F76Y/I96L/K127E/L162R/M171V/N62H/P40V/Q125Y/R42H/S133A/S149N/S66Y/V115G/V209L/W38E); assay: DR-peptide binding assay, DR4w4; conditions: for MHC Binding Assay DR4w4: Table 3, binding affinity relative to HA 307-319 = 1
T2 construct: EBV-transformed homozygous cell lines were used as a source of DR molecules; endogenous in cells; host or cells: Preiss or Beh (EBV-transformed human B cell lines, DR4 Dw4 homozygous); lysate purified on a monoclonal antibody LB3.1 column

DR4w14 = assay: DR-peptide binding assay, DR4w14; parameters: species or system human; conditions: for MHC Binding Assay DR4w14: Table 3, […]
in vitro = conditions: human, serum
[1] = Table 6, binding affinity relative to HA 307-319 = 1

DR1 (HLA-DR1; [1])	DR4w4 (DR4w4; [1])	DR4w14 (DR4w14; Table 6, […])	half-life at 50 µg/mL (in vitro)	SMILES	MHC Binding Assay DR1 (HLA-DR1)	MHC Binding Assay DR4w4 (DR4w4)	MHC Binding Assay DR4w14 (DR4w14)	half-life (in vitro)
–	–	–	–	C[C@H](NC(=O)[C@H](N)Cc1ccc(O)cc1)C(=O)N[C@@H](C)C(=O)N[C@@H](Cc1ccccc1)C(=O)N[C@@H](C)C(=O)N[C@@H](C)C(=O)N[C@@H](C)C(=O)N[C@@H](CCCCN)C(=O)N[C@H](C(=O)N[C@@H](C)C(=O)N[C@@H](C)C(=O)N[C@@H](C)C(=O)N[C@@H](C)C(=O)N[C@H](C)C(=O)O)[C@@H](C)O (H-[dY]AAFAAAKTAAAA[dA]-OH)	++ (affinity greater than 1.0)	++ (affinity greater than 1.0)	++ (affinity greater than 1.0)	8.85 h
–	–	–	–	CC(=O)N[C@H](Cc1ccc(O)cc1)C(=O)N[C@@H](C)C(=O)N[C@@H](C)C(=O)N[C@@H](Cc1ccccc1)C(=O)N[C@@H](C)C(=O)N[C@@H](C)C(=O)N[C@@H](C)C(=O)N[C@@H](CCCCN)C(=O)N[C@H](C(=O)N[C@@H](C)C(=O)N[C@@H](C)C(=O)N[C@@H](C)C(=O)N[C@@H](C)C(=O)N[C@H](C)C(=O)O)[C@@H](C)O (Ac-[dY]AAFAAAKTAAAA[dA]-OH)	± (0.1 to 0.50)	++ (affinity greater than 1.0)	++ (affinity greater than 1.0)	6.77 h
–	–	–	–	C[C@H](NC(=O)[C@H](N)Cc1ccc(O)cc1)C(=O)N[C@@H](C)C(=O)N[C@@H](Cc1ccccc1)C(=O)N[C@@H](C)C(=O)N[C@@H](C)C(=O)N[C@@H](C)C(=O)N[C@@H](CCCCN)C(=O)N[C@H](C(=O)N[C@@H](C)C(=O)N[C@@H](C)C(=O)N[C@@H](C)C(=O)N[C@@H](Cc1ccccc1)C(=O)N[C@H](C)C(N)=O)[C@@H](C)O (H-[dY]AAFAAAKTAAAF[dA]-NH2)	++ (affinity greater than 1.0)	++ (affinity greater than 1.0)	++ (affinity greater than 1.0)	5 h
+ (0.51 to 1.0)	++ (affinity greater than 1.0)	++ (affinity greater than 1.0)	7.2 h	C[C@H](NC(=O)CC12CC3CC(CC(C3)C1)C2)C(=O)N[C@@H](C)C(=O)N[C@@H](C)C(=O)N[C@@H](CCCCN)C(=O)N[C@H](C(=O)N[C@@H](C)C(=O)N[C@@H](C)C(=O)N[C@@H](C)C(=O)N[C@@H](Cc1ccccc1)C(=O)N[C@H](C)C(=O)O)[C@@H](C)O ({Acetyl(1-adamantyl)}-AAAKTAAAF[dA]-OH; C-terminus assumed)	–	–	–	–
